# Key:
# [1] = tested on: PC-3 human prostate cancer cells; test: Accumulation of radiotracers by cultured PC-3 cells; assay type: cell-based
# Method: The incubation media utilized for the experiments differed according to the cancer cell type (Table 1). On the day of the study, the medium was refreshed using a volume of 1 ml in each well. Cells were incubated in control conditions or with the addition of metabolic and growth factor receptor inhibitors to test the sensitivity of uptake of the radiotracers to specific inhibitions. […] Following a 30-min incubation period, the radiotracers (e.g., FDG or FCH) were added (˜2 µCi/well) and the cells were incubated for 2 hr. The cells were washed three times with phosphate buffered saline solution, released from the plates by briefly incubating with 0.05% trypsin in DMEM, transferred to test tubes, and counted for F-18 radioactivity in a gamma counter. The amount of radioactivity in the cells was normalized by the dose administered to each well.
# The present work studies the structure-activity relationships for purposes of optimization of the molecule for imaging prostate cancer. […] A number of structural analogs of choline were labeled as N-[^18F]fluoromethyl derivatives via the intermediate [^18F]fluorobromomethane (see Table 3). Uptake of the radiotracers was assessed in cultured PC-3 human prostate cancer cells and in a murine PC-3 xenograft model.
# [2] = tested on: patients with brain tumors; test: PET imaging in patients with brain tumors; assay type: in vivo, human; conditions: 5 patients with resected brain tumors, after injection
# Method: (§1) In breast cancer patients, whole-body PET scans were obtained, beginning at 10 min post-administration of FCH. In patients with brain tumors, PET scans of the brain were obtained, beginning at 5 min post-administration of FCH.
# PET imaging was performed in 5 patients with resected brain tumors for evaluation of recurrence of cancer. Dynamic images were obtained over the brain for the first 15 min after injection of FCH (2.5-6 mCi). Transmission scans were acquired before injection of radiotracer for purposes of attenuation correction. […] Radioactivity concentration in normal brain tissue was very low, allowing excellent delineation of the tumor. […] (See FIG. 12)
# [3] = tested on: patients with breast cancer; test: PET imaging in patients with breast cancer; assay type: in vivo, human; conditions: person, metastatic breast cancer
# Method: as §1
# Thirteen patients with metastatic breast cancer and one patient with both primary and metastatic breast cancer were each imaged with both FCH-PET and FDG-PET within a period of less than one month.
# A person had undergone re-excision of right breast intraductal carcinoma 4 yr prior, then right modified radical mastectomy 3 yr prior followed by tamoxifen chemotherapy. Six months prior to the PET scans, metastatic breast cancer was detected by palpation (right breast sternal mass) and CT (mediastinal and hilar adenopathies, mass in right anterior pelvis). Tamoxifen therapy was stopped. […] Uptake of FCH was also observed in the corresponding tumors: sternal mass (SUV=14.6), mediastinal and hilar adenopathies (SUVs˜8.5), pelvic mass (SUV=6.5). […] Smaller metastases were indicated on the FCH-PET scan in the right chest wall and left lung that were not seen on the FDG-PET scan. Concerning the anterior pelvic tumor, there was observed a homogenous distribution of FDG across the tumor in the FDG-PET scan, whereas the FCH was preferentially distributed on the periphery of the tumor.
# [4] = Stability of the FCH preparation (HPLC); assay type: physicochemical; conditions: room temperature for 7 hr, cation-exchange HPLC
# Method: The stability of FCH in its prepared form was evaluated by monitoring the radiochemical purity using the HPLC system described above. […] After an incubation of 2 hr at 37 C, the plasma was separated, the plasma proteins precipitated by adding two volumes of methanol, and the supernatant was analyzed for intact FCH by cation-exchange HPLC. […] FCH was also found to be stable in a blood samples taken from healthy human subjects (n=5).
# [5] = tested on: patients with prostate cancer; test: PET imaging in patients with prostate cancer; conditions: human, in vivo
# Method: The distribution of FCH in PET imaging studies was evaluated in 14 patients with prostate cancer, 14 patients with breast cancer, and 5 patients with brain tumors. Imaging was performed using the Advance PET scanner (GE Medical Systems, Milwaukee, Wis.). […] In prostate cancer patients, a transmission scan of the pelvic region was obtained before administration of radiotracer. FCH (2.5-5 mCi) was administered intravenously, and dynamic imaging of the pelvis region was commenced for 20-30 min. During image reconstruction, the emission data in the pelvic region were corrected for photon attenuation using the transmission scan. Immediately following the dynamic scan, a whole-body emission scan was performed without transmission scanning for attenuation correction. The images were reconstructed using an Ordered Subset Expectation Maximum (OS-EM) algorithm. Regions-of-interest were drawn manually on the attenuation corrected images for evaluation of FCH kinetics in tissues. Standardized uptake values of FCH uptake in tissues were calculated using the attenuation-corrected images according to the equation: [formula]
# Patient 2: Transmission and FCH emission scans of a person with hormone naive clinical stage T2 prostate cancer were commenced over the lower pelvis.
# The same patient was scanned with FDG within the same week (FIG. 8).
# Patient 4: A person with a history of clinical stage T3b prostate cancer treated by radical retropubic prostatectomy was diagnosed with metastatic disease by bone scan. FCH-PET imaging was performed before and after initiating androgen deprivation therapy. In the first study, whole-body emission scanning was started 5 min after injection, beginning at the pelvic region in order to image the pelvis and prostatic bed before arrival of urinary radioactivity. […] The patient was rescanned 2 weeks after initiating androgen deprivation therapy.
# Patient 5: A person was initially diagnosed five years prior with locally advanced clinical stage T3NOMO prostate cancer and underwent radical prostatectomy followed by external beam radiation to the prostate bed. […] The patient was then treated with Zolex and Casodex.
smiles,measurement,setting,value
"C[N+](C)(CF)CCO.[Cl-] [FCH, dimethylfluoromethyl-2-hydroxyethylammonium chloride]",uptake in cultured PC-3 cells,[1],"~2 %/hr/100,000 cells plated"
same,"Uptake by PC-3 cancer cells, HC-3",[1]; 5 mM hemicholinium-3,0.18 ± 0.02 % dose/2 hr/105 cells plated
same,decrease in uptake by PC-3 cells with hemicholinium-3 (HC-3),[1]; HC-3 versus control,89%
same,uptake of FCH relative to HARA-1,[1]; PC-3 prostate cancer cells,3 fold
same,accumulation by cultured PC-3 cells compared with other tracers,[1]; control conditions,similarly to CH
same,"Uptake by PC-3 cancer cells, Control","[1]; control, 2 hr incubation",1.58 ± 0.18 % dose/2 hr/105 cells plated
same,Uptake by PC-3 cells,"[1]; inhibitor HC-3 (hemicholinium-3, 5 mM)",0.160 ± 0.009 % dose/2 hr/10^5 cells plated
same,Uptake by PC-3 cells,[1]; inhibitor none,1.574 ± 0.033 % dose/2 hr/10^5 cells plated
same,time to plateau of radiotracer concentration in the tumor,[2],≤ 5 min
same,SUV of pelvic tumor / pelvic mass,[3],6.5
same,SUV of sternal mass,[3],14.6
same,SUVs of mediastinal and hilar adenopathies,[3],~8.5
same,radiochemical purity after storage of the preparation,[4],> 99%
same,decrease of SUV in ischial metastasis,[5],68%
same,decrease of SUV in primary tumor,[5],61%
same,decrease of SUVs in the tumors,[5],35-40%
same,SUV in ischial metastasis,[5]; male,2.4
same,SUV in primary tumor,[5]; male,3.0
same,SUV index in osseous lesions,[5]; male,8.0
same,SUV values in osseous lesions of the pelvis region,[5]; male,3.8-8.0
same,injected dose of radioactivity in urine,[5]; male,1.3%
same,radioactivity concentration in the brain relative to prostate gland or metastasis,[5]; male,< 2%
same,time of arrival of radioactivity in the urinary bladder / urine,[5]; male,about 8 min
same,time to plateau of radioactivity concentration in prostate and metastasis,[5]; male,≤ 5 min
same,time to plateau of radioactivity concentration in the prostate bed,[5]; male,≤ 3 min
same,"tracer uptake in osseous lesions, FCH relative to FDG",[5]; male,2 fold
same,arterial concentration relative to the peak level,"[5]; male, 2 min",< 5%
same,SUV of osseous metastasis (left ischium),"[5]; male, 5 min",7.7
same,SUV of primary tumor,"[5]; male, 5 min",7.7

# Source: patent US6630125B2, “18F-labeled choline analogs” (priority 2000, dated 2003)
